Here are results for five compounds from paper PMC2362906, “Effects of new 17α-hydroxylase/C17,20-lyase inhibitors on LNCaP prostate cancer cell growth in vitro and in vivo” (British Journal of Cancer, 1999).

Entries after “also recorded” stand apart in the source; their conditions may differ.

Assay [1] deals with T1, human 17α-hydroxylase/C17,20-lyase (P450c17) expressed in LNCaP-CYP17 cells (Homo sapiens, UniProt P05093).
T1 sequence (P05093 9-508 limits assumed): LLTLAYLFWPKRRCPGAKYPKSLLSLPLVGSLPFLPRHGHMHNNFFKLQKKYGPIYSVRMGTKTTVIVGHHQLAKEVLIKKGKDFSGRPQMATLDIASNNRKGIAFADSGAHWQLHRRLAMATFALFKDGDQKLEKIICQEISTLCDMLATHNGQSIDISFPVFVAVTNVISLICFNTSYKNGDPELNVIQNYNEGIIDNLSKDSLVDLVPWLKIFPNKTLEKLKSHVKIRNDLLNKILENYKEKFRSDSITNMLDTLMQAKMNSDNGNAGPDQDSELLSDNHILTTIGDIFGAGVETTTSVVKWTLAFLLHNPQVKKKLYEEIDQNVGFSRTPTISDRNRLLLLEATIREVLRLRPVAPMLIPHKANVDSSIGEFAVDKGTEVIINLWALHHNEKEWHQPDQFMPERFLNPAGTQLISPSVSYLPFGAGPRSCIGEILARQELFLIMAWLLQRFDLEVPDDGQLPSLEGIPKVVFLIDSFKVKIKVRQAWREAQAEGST
Description: [3H]-acetic acid releasing assay (AARA) with LNCaP-CYP17 cells. It counts as cell-based. The note with it: for IC50: LNCaP-CYP17 cells, 7 μM [21-3H]17-OHP5, 16 h, mean ± s.e.m., three experiments.

For assay [2], the system named is LNCaP cells. The assay can be described thus: Testosterone-stimulated wild-type LNCaP cell growth. It counts as cell-based, human. The note with it: 0.1 nM testosterone, 9 days. The text has this:
(§1) Prostate cancer is the most common malignancy and the second leading cause of cancer-related deaths among men in the US and the UK (Shibata et al, 1998). […] Steroidal 17-hydroxylase/C17,20 -lyase (P450c17) (EC 1.14.99.0) was selected as the target enzyme for inhibition, as this is a key regulatory enzyme of androgen synthesis. P450c17 catal- yses two sequential reactions in the steroid biosynthetic pathway and converts pregnenolone and progesterone to the C-19 andro- gens, dehydroepiandrosterone and androstenedione respectively. This enzyme has an identical amino acid sequence in testicular and adrenal tissues (Chung et al, 1987). […] In order to evaluate the effectiveness of these inhibitors we developed a multi-step system, which utilized the LNCaP human prostate cancer cell line. LNCaP cells remain the only androgen receptor (AR)-positive prostate cancer cell line, that can be readily grown in tissue culture (Horoszewicz et al, 1983). These cells respond to androgens with increased cell proliferation and elevated expression of prostate specific antigen (PSA) (Berns et al, 1993). LNCaP cells at early passages are not only androgen-responsive, but also androgen- dependent (Pousette et al, 1997). This is similar to the situation in most tumours of prostatic cancer patients, which are initially highly responsive and dependent on androgens. […] Therefore, we employed LNCaP cells as a model for evaluating the effectiveness of our new inhibitors of androgen synthesis. In this study the compounds selected for evaluation were two groups of azolyl steroids. […] Here we report on the application of LNCaP-CYP17-transfected cells for determining the inhibitory potencies of the new compounds against the P450c17 enzyme. […] We designed and evaluated two groups of azolyl steroids: 5-non-competitive inhibitors (5NCIs), VN/63-1, VN/85-1, VN/87-1 and their corresponding 4 derivatives (4NCIs), VN/107-1, VN/108-1 and VN/109-1. The human P450c17 gene was transfected into LNCaP human prostate cancer cells, and the resultant LNCaP- CYP17 cells were utilized to evaluate the inhibitory potency of the new azolyl steroids. […] We further evaluated our inhibitors in male severe combined immuno- deficient mice bearing LNCaP tumour xenografts. […] We also utilized wild-type LNCaP prostatic carcinoma cells for evaluating the direct effects of new azolyl steroids on proliferation of these cells in vitro and in vivo. MATERIALS AND METHODS Materials The human prostate cancer cell line LNCaP was obtained from the American Type Culture Collection (Rockville, MD, USA). RPMI- 1640 medium, trypsin-EDTA (0.25%/0.02%), penicillin/strepto- mycin (P/S), geniticin (G418), and LipofectAMINE were from Gibco-BRL (Grand Island, NY, USA). Fetal bovine serum (FBS) was obtained from Summit Biotechnology Inc. (Fort Collins, CO, USA) and steroid-free FBS was prepared as described previously (Klus et al, 1996). Phenol red free IMEM and trypsin-versine were purchased from Biofluids Inc. (Rockville, MD, USA). Chloroform and acetonitrile were purchased from JT Baker, Inc (Phillipsburg, NJ, USA). Hydroxypropyl cellulose (HPC) was purchased from Sigma Chemical Co. (St Louis, MO, USA). The PSA enzyme- linked immunusorbent assay (ELISA) kit was from DSL Inc. (Webster, TX, USA). Matrigel was generously supplied by Dr Hynda Kleinman (NIH, Bethesda, MD, USA). Inhibitors of androgen synthesis: VN/63-1, VN/85-1, VN/87-1, VN/107-1, VN/108-1 and VN/109-1 were synthesized in our labo- ratory as previously described (Njar et al, 1998). […] Metribolone [17-methyl-3 H]-R1881 ([3 H]-R1881: specific activity 86 Ci mmol-1 ) was purchased from Dupont NEN (Boston, MA, USA).

Assay [3] deals with LNCaP cells. The assay can be described thus: DHT-stimulated wild-type LNCaP cell growth. The class given is cell-based, human. The settings on record: 0.03 nM DHT, 9 days.
Text: as §1

Assay [4] has as its system LNCaP tumour xenografts. Description: LNCaP tumour xenograft growth in male SCID mice. The class given is in vivo.
Text: as §1

Assay [5] has as its system serum PSA. Description: Serum PSA (ELISA) in LNCaP tumour-bearing SCID mice. The settings on record: first experiment, 50 mg kg-1 day-1, 28 days. It counts as in vivo, male SCID mice. The text has this:
Prostate cancer is the most common malignancy and the second leading cause of cancer-related deaths among men in the US and the UK (Shibata et al, 1998). […] Steroidal 17-hydroxylase/C17,20 -lyase (P450c17) (EC 1.14.99.0) was selected as the target enzyme for inhibition, as this is a key regulatory enzyme of androgen synthesis. P450c17 catal- yses two sequential reactions in the steroid biosynthetic pathway and converts pregnenolone and progesterone to the C-19 andro- gens, dehydroepiandrosterone and androstenedione respectively. This enzyme has an identical amino acid sequence in testicular and adrenal tissues (Chung et al, 1987). […] In order to evaluate the effectiveness of these inhibitors we developed a multi-step system, which utilized the LNCaP human prostate cancer cell line. LNCaP cells remain the only androgen receptor (AR)-positive prostate cancer cell line, that can be readily grown in tissue culture (Horoszewicz et al, 1983). These cells respond to androgens with increased cell proliferation and elevated expression of prostate specific antigen (PSA) (Berns et al, 1993). LNCaP cells at early passages are not only androgen-responsive, but also androgen- dependent (Pousette et al, 1997). This is similar to the situation in most tumours of prostatic cancer patients, which are initially highly responsive and dependent on androgens. […] Therefore, we employed LNCaP cells as a model for evaluating the effectiveness of our new inhibitors of androgen synthesis. In this study the compounds selected for evaluation were two groups of azolyl steroids. […] Here we report on the application of LNCaP-CYP17-transfected cells for determining the inhibitory potencies of the new compounds against the P450c17 enzyme. […] We designed and evaluated two groups of azolyl steroids: 5-non-competitive inhibitors (5NCIs), VN/63-1, VN/85-1, VN/87-1 and their corresponding 4 derivatives (4NCIs), VN/107-1, VN/108-1 and VN/109-1. The human P450c17 gene was transfected into LNCaP human prostate cancer cells, and the resultant LNCaP- CYP17 cells were utilized to evaluate the inhibitory potency of the new azolyl steroids. […] We further evaluated our inhibitors in male severe combined immuno- deficient mice bearing LNCaP tumour xenografts. […] We also utilized wild-type LNCaP prostatic carcinoma cells for evaluating the direct effects of new azolyl steroids on proliferation of these cells in vitro and in vivo. MATERIALS AND METHODS Materials The human prostate cancer cell line LNCaP was obtained from the American Type Culture Collection (Rockville, MD, USA). RPMI- 1640 medium, trypsin-EDTA (0.25%/0.02%), penicillin/strepto- mycin (P/S), geniticin (G418), and LipofectAMINE were from Gibco-BRL (Grand Island, NY, USA). Fetal bovine serum (FBS) was obtained from Summit Biotechnology Inc. (Fort Collins, CO, USA) and steroid-free FBS was prepared as described previously (Klus et al, 1996). Phenol red free IMEM and trypsin-versine were purchased from Biofluids Inc. (Rockville, MD, USA). Chloroform and acetonitrile were purchased from JT Baker, Inc (Phillipsburg, NJ, USA). Hydroxypropyl cellulose (HPC) was purchased from Sigma Chemical Co. (St Louis, MO, USA). The PSA enzyme- linked immunusorbent assay (ELISA) kit was from DSL Inc. (Webster, TX, USA). Matrigel was generously supplied by Dr Hynda Kleinman (NIH, Bethesda, MD, USA). […]
For orientation: An ELISA detects its analyte on a solid surface through an enzyme-linked reagent.

Assay [6] relates to serum testosterone. Description: Serum testosterone (RIA) in SCID mice. The settings on record: Table 2, first experiment, 28 days of treatment, 50 mg kg-1 day-1; control 1.043. The class given is in vivo, male SCID mice.
Text: as §1

Assay [7] has as its system serum DHT. Description: Serum DHT (RIA) in SCID mice. The class given is in vivo, male SCID mice. The settings on record: 28 days of treatment, 50 mg kg-1 day-1.
Text: as §1

Assay [8] has as its target human prostatic 5-reductase. On the set-up: method as in Njar et al, 1998. The note with it: human prostatic microsomes; reported previously; ref Njar et al, 1998; cited from earlier work.
[9] abbreviates: first experiment, 50 mg kg-1 day-1, 28 days.
Where [10] appears, read: Table 2, first experiment, control 243.8.

Turning to `C[C@]12CC[C@H](O)CC1=CC[C@@H]1[C@@H]2CC[C@]2(C)C(n3ccnc3)=CC[C@@H]12` [VN/85-1], the IC50 in assay [1] was 1.25 ± 0.44 nM; in assay [8], > 5000 nM. Also, the “Concentration that completely inhibited the growth stimulatory effect of testosterone” value in assay [2] worked out at 1.0 µM. Besides, the “Concentration that completely blocked DHT stimulation” value in assay [3] was found to be 1.0 µM. Also, the “Reduction of tumour weights compared to vehicle-treated mice” value in assay [4] (setting [9]) came to 27%. Also, the “Serum PSA levels versus control” value in assay [5] is listed as “significantly lower”. The “Serum Testosterone” value in assay [6] turned out to be 0.141 ng/mL. Also, the “Serum DHT” value in assay [7] (setting [10]) is 143.7 pg/mL.

Take `C[C@]12CC[C@H](O)CC1=CC[C@@H]1[C@@H]2CC[C@]2(C)C(n3ccnn3)=CC[C@@H]12` [VN/87-1]: the concentration for half-maximal inhibition (IC50) is 7.97 nM in assay [1] and > 5000 nM in assay [8]. For the same compound, the “Inhibition of LNCaP tumour growth (tumour volume)” value in assay [4] (first experiment, 50 mg kg-1 day-1, 4 weeks) is on record as 33%. The “Reduction of tumour weights compared to vehicle-treated mice” value in assay [4] (setting [9]) was 31%. Moreover, the “Serum PSA levels versus control” value in assay [5] is given as “significantly lower”. Besides, the “Serum Testosterone” value in assay [6] came out at 0.343 ng/mL. Moreover, the “Serum DHT” value in assay [7] (setting [10]) came out at 128.6 pg/mL.

Consider `C[C@]12CCC(=O)C[C@@H]1CC[C@@H]1[C@@H]2CC[C@]2(C)[C@@H](O)CC[C@@H]12` [DHT, Dihydrotestosterone, reference compound], for which the “Stimulation of LNCaP cell proliferation compared to vehicle-treated cells” value in assay [3] came out at 3.2 fold.

Regarding `C[C@]12CCC(=O)C=C1CC[C@@H]1[C@@H]2CC[C@]2(C)C(n3ccnn3)=CC[C@@H]12` [VN/109-1], the figures for the IC50 in assay [1] and in assay [8] were 5.39 nM and 198 nM, respectively. Also, the “Effect on testosterone-stimulated cell growth (words)” value in assay [2] (0.5-5.0 μM compound) is “moderate inhibitory effect; also recorded: biphasic growth responses”. The “Effect on DHT-induced cell proliferation” value in assay [3] (0.5-5.0 μM compound) is given as “least effective inhibitors of androgen-induced cell pro- liferation”. Besides, the “Stimulation of LNCaP tumour growth compared to control mice” value in assay [4] (second experiment, 50 mg kg-1 day-1, 28 days) is reported as 110%. Also, in assay [7] (Table 3, second experiment, control 239.2), the “Serum DHT” value turned out to be 228.4 pg/mL.

Turning to `CC(=O)[C@@]1(O)CC[C@H]2[C@@H]3CC=C4C[C@@H](O)CC[C@]4(C)[C@H]3CC[C@@]21C` [[213 H]17-hydroxypregnenolone, [21-3 H]17-Hydroxypregnenolone, reference compound], in assay [1] (substrate 0.5-20 μM, 16 h, 37C, RADLIG software), the Km came to 0.87 µM.

As a reminder, the IC50 is the midpoint of a concentration-inhibition curve. As usually defined, the Km is the concentration of substrate that gives half-maximal velocity.
